# According to publication PMC8753592, “Long-acting capsid inhibitor protects macaques from repeat SHIV challenges” (Nature, 2021):
# Several values for one entry are separate records, joined by “and”; a condition that tells them apart may be missing. Equal entries are not always repeated. Where two headings read alike, the source gives them in different places.
# Tests used:
# [1] = Plasma GS-CA1 pharmacokinetics in the repeat SHIV challenge study; type: in vivo, rhesus macaques of Indian origin
# Protocol: For the challenge study, 24 outbred rhesus macaques of Indian origin were assigned to the three study groups with even sex and weight distributions. All animals were housed at Alpha Genesis (Yemassee, SC), and all procedures were conducted in compliance with all relevant local, state and federal regulations and were approved by the Alpha Genesis IACUC. […] The injection sites were monitored daily by veterinary staff for 3 days. Beginning in week 1, animals in all three groups were challenged by the intrarectal route with 1 ml of RPMI containing the specified dilution of a 3.62 × 10^3 TCID50 SHIV-SF162P3 stock. At each respective time point, the challenges were performed on the same day, using the same virus stock and inoculation method across the three groups. Whole blood was collected and processed into plasma and PBMCs as necessary to assess routine haematology, clinical chemistry, viral load and serology as well as for bioanalysis of drug levels. The animals were considered to be protected if they remained SHIV negative by plasma PCR assay and seronegative by enzyme immunoassay throughout the 15-week challenge phase and the 9-week follow-up.
# Rhesus plasma samples were stored frozen at −80 °C.
# [2] = tested on: SHIV envelope (Env) glycoprotein; assay: Env (gp140) ELISA seroconversion in challenged animals; type: in vivo, rhesus macaques; details: for First viremia to seroconversion interval / Seroconversion timepoint: individual infected animals
# Protocol: Rhesus serum binding antibody titres against gp140 trimers were determined by ELISA. Ninety-six-well Maxisorp ELISA plates (Thermo Fisher Scientific) were coated overnight with 100 μl per well of 1 μg ml^−1 mosaic M gp140 protein in PBS and were then blocked for 2 h with blocker casein in PBS (Thermo Scientific). Macaque sera were added in threefold serial dilutions and were incubated for 1 h at room temperature. The plates were washed three times with PBS containing 0.05% Tween-20 and were then incubated for 1 h with a 1:1,000 dilution of a horseradish peroxidase (HRP)-conjugated goat anti-human secondary antibody (Jackson ImmunoResearch Laboratories). The plates were then washed three times with the above wash buffer and were developed using SureBlue tetramethylbenzidine (TMB) microwell peroxidase (KPL). Development was stopped by the addition of a stop solution (KPL), and the plates were then analysed at 450 nm with a Versamax ELISA microplate reader (Molecular Devices) using Softmax Pro 6.5.1 software. The ELISA endpoint titres were defined as the highest reciprocal serum dilution that yielded an OD450 nm absorbance of >0.2. Seroconversion occurred when the OD450 nm absorbance was greater than or equal to three times the value obtained at week 0 and the endpoint titre was greater than the assay LOD, which was 1:25.
# [3] = both sexes, Indian origin, rhesus monkey, in vivo, sc, 150 mg/kg, 150 mg/kg single s.c., n=8, mean ± SD
# [4] = both sexes, Indian origin, rhesus monkey, in vivo, sc, 300 mg/kg, 300 mg/kg single s.c., n=8, mean ± SD
# [5] = both sexes, Indian origin, rhesus monkey, in vivo, sc, 150 mg/kg single s.c., n=8, mean ± SD
# [6] = both sexes, Indian origin, rhesus monkey, in vivo, sc, 300 mg/kg single s.c., n=8, mean ± SD
smiles,measurement,setting,value
CC(C)(C#Cc1ccc(-c2ccc(Cl)c3c(NS(=O)(=O)C4CC4)nn(CC(F)F)c23)c([C@H](Cc2cc(F)cc(F)c2)NC(=O)Cn2nc(C(F)F)c3c2C(F)(F)[C@@H]2C[C@H]32)n1)S(C)(=O)=O [GS-CA1],Plasma GS-CA1,"[1]; 150 mg/kg single s.c., Week 12, individual animals",46.73 nM and 64.14 nM
same,Plasma GS-CA1,"[1]; 150 mg/kg single s.c., Week 13, individual animals",44.36 nM
same,Plasma GS-CA1,"[1]; 150 mg/kg single s.c., Week 14, individual animals",34.07 nM
same,Plasma GS-CA1,"[1]; 150 mg/kg single s.c., Week 15, individual animals",17.38 nM
same,Plasma GS-CA1,"[1]; 150 mg/kg single s.c., Week 16, individual animals",12.74 nM
same,Plasma GS-CA1,"[1]; 150 mg/kg single s.c., Week 17, individual animals",16.54 nM
same,Plasma GS-CA1,"[1]; 150 mg/kg single s.c., Week 18, individual animals",11.37 nM
same,Plasma GS-CA1,"[1]; 150 mg/kg single s.c., Week 19, individual animals",19.32 nM
same,Plasma GS-CA1,"[1]; 150 mg/kg single s.c., Week 20, individual animals",17.47 nM
same,Plasma GS-CA1,"[1]; 150 mg/kg single s.c., Week 21, individual animals",4.49 nM
same,Plasma GS-CA1,"[1]; 150 mg/kg single s.c., Week 22, individual animals",3.38 nM
same,Plasma GS-CA1,"[1]; 150 mg/kg single s.c., Week 23, individual animals",2.14 nM
same,Plasma GS-CA1,"[1]; 150 mg/kg single s.c., Week 24, individual animals",4.67 nM
same,time above the rhesus paEC95,[1]; 300 mg/kg single s.c.,14–16 weeks
same,time six times above the rhesus paEC95,[1]; 300 mg/kg single s.c.,5–8 weeks
same,Cmax,"[1]; 300 mg/kg single s.c., n=8, mean ± SD",5530 ± 1470 nM
same,concentration at 12 week,"[1]; both sexes, Indian origin (outbred), rhesus monkey, in vivo, 300 mg/kg, Plasma GS-CA1, GS-CA1 300mg/kg, Week 12, individual animals",83.4 nM
same,concentration at 15 week,"[1]; both sexes, Indian origin (outbred), rhesus monkey, in vivo, 300 mg/kg, Plasma GS-CA1, GS-CA1 300mg/kg, Week 15, individual animals",45.4 nM
same,concentration at 12 weeks,"[1]; both sexes, Indian origin, outbred, rhesus monkey, in vivo, 300 mg/kg, Plasma GS-CA1, 300 mg/kg single s.c., Week 12, individual animals",83.4 nM
same,concentration at 15 weeks,"[1]; both sexes, Indian origin, outbred, rhesus monkey, in vivo, 300 mg/kg, Plasma GS-CA1, 300 mg/kg single s.c., Week 15, individual animals",45.4 nM
same,Cmax,[1]; [3],3000 nM
same,Tmax,[1]; [3],~1 days
same,Cmax,[1]; [4],5500 nM
same,Tmax,[1]; [4],~1.75 days
same,AUC(0-inf),[1]; [5],960 ± 435 µM·h
same,AUC(0-t),[1]; [5],959 ± 435 µM·h
same,half-life,"[1]; both sexes, Indian origin, rhesus monkey, in vivo, sc, 150 mg/kg single s.c., n=8, mean ± SD, read-out: t1/2 (converted)",13.2 ± 5.5 days
same,AUC(0-inf),[1]; [6],2040 ± 722 µM·h
same,AUC(0-t),[1]; [6],2040 ± 722 µM·h
same,half-life,"[1]; both sexes, Indian origin, rhesus monkey, in vivo, sc, 300 mg/kg single s.c., n=8, mean ± SD, read-out: t1/2 (converted)",12 ± 1.88 days
same,half-life,"[1]; both sexes, Indian origin, rhesus monkey, in vivo, range over the 150 and 300 mg/kg groups, read-out: mean half-life",12 to 13.2 days
same,First viremia to seroconversion interval,[2]; 150 mg/kg,1 weeks and 4 weeks and 5 weeks
same,Seroconversion timepoint,[2]; 150 mg/kg,17 study week and 20 study week and 18 study week and 16 study week and 19 study week and 21 study week
same,First viremia to seroconversion interval,[2]; 300 mg/kg,1 weeks and 3 weeks
same,Seroconversion timepoint,[2]; 300 mg/kg,18 study week and 20 study week
same,median time to seroconversion from the onset of viraemia,"[2]; all infected GS-CA1-treated animals, range 1 to 5 weeks",4 weeks
